Consider three compounds from ChEMBL document CHEMBL2429821, “A Casein kinase 1/Checkpoint kinase 1 pyrazolo-pyridine protein kinase inhibitor as novel activator of the p53 pathway” (Bioorg Med Chem Lett, 2013).

The structures appear in SMILES notation.

Test [1] has as its target MAP kinase-interacting serine/threonine-protein kinase 1 (Homo sapiens) (UniProt Q9BUB5). The experiment in a line: Inhibition of human MNK1 assessed as residual activity at 10 uM relative to control.
Test [2] addresses RAC-beta serine/threonine-protein kinase (Homo sapiens) (UniProt P31751). The test can be described thus: Inhibition of human PKBbeta assessed as residual activity at 1 uM relative to control.
Test [3] deals with Rho-associated protein kinase 2 (Rattus norvegicus) (UniProt Q62868). The experiment in a line: Inhibition of rat ROCK2 assessed as residual activity at 1 uM relative to control.
Test [4] concerns the target T1, Serine/threonine-protein kinase TBK1 (Homo sapiens) (UniProt Q9UHD2).
T1 sequence (whole entry): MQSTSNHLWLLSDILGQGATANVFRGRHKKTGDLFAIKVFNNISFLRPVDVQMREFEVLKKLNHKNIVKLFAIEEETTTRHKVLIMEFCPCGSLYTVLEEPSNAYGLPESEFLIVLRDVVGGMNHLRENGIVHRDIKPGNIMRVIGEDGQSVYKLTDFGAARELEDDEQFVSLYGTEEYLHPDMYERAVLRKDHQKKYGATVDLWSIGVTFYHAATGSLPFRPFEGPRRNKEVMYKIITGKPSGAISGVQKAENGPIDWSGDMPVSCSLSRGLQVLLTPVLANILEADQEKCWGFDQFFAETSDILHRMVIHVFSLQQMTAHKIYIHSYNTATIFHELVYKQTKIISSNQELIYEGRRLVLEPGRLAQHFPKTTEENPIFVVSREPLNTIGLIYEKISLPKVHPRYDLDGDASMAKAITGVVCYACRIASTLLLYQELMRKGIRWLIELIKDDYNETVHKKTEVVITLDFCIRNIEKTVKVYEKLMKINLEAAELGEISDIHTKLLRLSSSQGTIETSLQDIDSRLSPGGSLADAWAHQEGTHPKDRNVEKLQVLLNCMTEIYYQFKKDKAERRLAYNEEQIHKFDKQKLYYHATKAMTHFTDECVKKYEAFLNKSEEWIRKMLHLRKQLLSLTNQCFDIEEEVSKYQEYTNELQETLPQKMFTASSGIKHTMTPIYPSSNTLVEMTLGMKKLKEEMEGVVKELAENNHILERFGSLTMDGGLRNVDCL
The experiment in a line: Inhibition of human TBK1 assessed as residual activity at 1 uM relative to control.

The target of test [5] is T2, Inhibitor of nuclear factor kappa-B kinase subunit epsilon (Homo sapiens) (UniProt Q14164).
T2 sequence (whole entry): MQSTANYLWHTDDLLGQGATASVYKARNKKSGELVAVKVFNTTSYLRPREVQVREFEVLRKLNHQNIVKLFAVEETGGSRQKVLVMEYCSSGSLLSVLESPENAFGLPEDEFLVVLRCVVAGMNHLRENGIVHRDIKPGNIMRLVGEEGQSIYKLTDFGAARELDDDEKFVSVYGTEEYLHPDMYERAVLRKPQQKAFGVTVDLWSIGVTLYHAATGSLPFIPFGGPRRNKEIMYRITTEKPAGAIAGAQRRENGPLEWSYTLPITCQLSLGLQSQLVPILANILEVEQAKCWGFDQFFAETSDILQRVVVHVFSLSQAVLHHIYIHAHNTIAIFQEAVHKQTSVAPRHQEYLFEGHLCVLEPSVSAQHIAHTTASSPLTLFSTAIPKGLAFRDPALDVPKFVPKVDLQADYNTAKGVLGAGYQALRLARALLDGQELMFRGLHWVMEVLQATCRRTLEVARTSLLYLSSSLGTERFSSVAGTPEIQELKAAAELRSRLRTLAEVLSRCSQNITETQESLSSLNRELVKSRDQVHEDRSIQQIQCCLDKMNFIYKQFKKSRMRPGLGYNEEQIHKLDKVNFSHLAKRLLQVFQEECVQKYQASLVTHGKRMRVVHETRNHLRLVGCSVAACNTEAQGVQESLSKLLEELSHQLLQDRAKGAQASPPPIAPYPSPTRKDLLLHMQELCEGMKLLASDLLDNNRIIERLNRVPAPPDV
The test can be described thus: Inhibition of human IKKepsilon assessed as residual activity at 1 uM relative to control.

Test [6] has as its target Aurora kinase B (Homo sapiens) (UniProt Q96GD4). The test can be described thus: Inhibition of human Aurora-B assessed as residual activity at 10 uM relative to control.
Test [7] addresses Tyrosine-protein kinase SYK (Homo sapiens) (UniProt P43405). The experiment in a line: Inhibition of human SYK assessed as residual activity at 10 uM relative to control.
In test [8] the target is Insulin receptor-related protein (Homo sapiens) (UniProt P14616). The experiment in a line: Inhibition of human IRR assessed as residual activity at 1 uM relative to control.
In test [9] the target is T3, Serine/threonine-protein kinase Nek2 (Homo sapiens) (UniProt P51955).
T3 sequence (whole entry): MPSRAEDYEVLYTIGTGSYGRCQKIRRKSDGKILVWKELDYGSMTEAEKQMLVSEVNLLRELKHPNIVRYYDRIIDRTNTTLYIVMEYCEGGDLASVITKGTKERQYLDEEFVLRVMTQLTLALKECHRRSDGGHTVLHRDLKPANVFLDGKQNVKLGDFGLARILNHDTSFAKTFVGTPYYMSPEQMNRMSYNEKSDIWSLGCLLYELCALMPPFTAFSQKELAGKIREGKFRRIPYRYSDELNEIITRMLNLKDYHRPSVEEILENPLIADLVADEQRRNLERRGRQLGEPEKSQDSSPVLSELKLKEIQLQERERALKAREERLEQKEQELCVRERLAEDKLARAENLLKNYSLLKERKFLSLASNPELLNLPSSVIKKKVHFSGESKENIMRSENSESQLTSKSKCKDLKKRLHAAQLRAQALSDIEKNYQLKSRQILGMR
The experiment in a line: Inhibition of human NEK2alpha assessed as residual activity at 1 uM relative to control.

In test [10] the target is Serine/threonine-protein kinase Chk2 (Homo sapiens) (UniProt O96017). The experiment in a line: Inhibition of human CHK2 assessed as residual activity at 10 uM relative to control.
For another test, the species on record is Oryctolagus cuniculus. The test can be described thus: Inhibition of rabbit MKK1 assessed as residual activity at 10 uM relative to control.
The target in test [11] is RAC-beta serine/threonine-protein kinase (Homo sapiens) (UniProt P31751). The experiment in a line: Inhibition of human PKBbeta assessed as residual activity at 10 uM relative to control.
In test [12] the target is Tyrosine-protein kinase Yes (Homo sapiens) (UniProt P07947). The experiment in a line: Inhibition of human YES1 assessed as residual activity at 1 uM relative to control.
Test [13] deals with Myosin light chain kinase, smooth muscle (Homo sapiens) (UniProt Q15746). The experiment in a line: Inhibition of human smMLCK assessed as residual activity at 1 uM relative to control.
The target of test [14] is Aurora kinase B (Homo sapiens) (UniProt Q96GD4). The test can be described thus: Inhibition of human Aurora-B assessed as residual activity at 1 uM relative to control.
The species named for a further test is Bos taurus. The test can be described thus: Inhibition of cow PKA assessed as residual activity at 1 uM relative to control.
For test [15], the target named is MAP kinase-interacting serine/threonine-protein kinase 1 (Homo sapiens) (UniProt Q9BUB5). The test can be described thus: Inhibition of human MNK1 assessed as residual activity at 1 uM relative to control.
MAP kinase-interacting serine/threonine-protein kinase 1 (Homo sapiens), sequence (Q9BUB5 whole entry, looked up): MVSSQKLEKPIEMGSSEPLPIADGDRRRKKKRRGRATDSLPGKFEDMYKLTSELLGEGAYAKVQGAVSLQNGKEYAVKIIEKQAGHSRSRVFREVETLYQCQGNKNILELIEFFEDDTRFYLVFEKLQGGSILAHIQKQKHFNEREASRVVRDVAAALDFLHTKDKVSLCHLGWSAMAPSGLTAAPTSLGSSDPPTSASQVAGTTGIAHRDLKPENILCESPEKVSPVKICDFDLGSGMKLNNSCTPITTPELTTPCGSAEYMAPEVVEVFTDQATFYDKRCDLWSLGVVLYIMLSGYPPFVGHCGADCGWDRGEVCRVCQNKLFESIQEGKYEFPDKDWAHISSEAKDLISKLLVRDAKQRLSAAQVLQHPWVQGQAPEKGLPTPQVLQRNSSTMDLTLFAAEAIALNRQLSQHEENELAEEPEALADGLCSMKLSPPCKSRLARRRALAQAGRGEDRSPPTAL

Insulin receptor-related protein (Homo sapiens), sequence (P14616 27-742 limits assumed): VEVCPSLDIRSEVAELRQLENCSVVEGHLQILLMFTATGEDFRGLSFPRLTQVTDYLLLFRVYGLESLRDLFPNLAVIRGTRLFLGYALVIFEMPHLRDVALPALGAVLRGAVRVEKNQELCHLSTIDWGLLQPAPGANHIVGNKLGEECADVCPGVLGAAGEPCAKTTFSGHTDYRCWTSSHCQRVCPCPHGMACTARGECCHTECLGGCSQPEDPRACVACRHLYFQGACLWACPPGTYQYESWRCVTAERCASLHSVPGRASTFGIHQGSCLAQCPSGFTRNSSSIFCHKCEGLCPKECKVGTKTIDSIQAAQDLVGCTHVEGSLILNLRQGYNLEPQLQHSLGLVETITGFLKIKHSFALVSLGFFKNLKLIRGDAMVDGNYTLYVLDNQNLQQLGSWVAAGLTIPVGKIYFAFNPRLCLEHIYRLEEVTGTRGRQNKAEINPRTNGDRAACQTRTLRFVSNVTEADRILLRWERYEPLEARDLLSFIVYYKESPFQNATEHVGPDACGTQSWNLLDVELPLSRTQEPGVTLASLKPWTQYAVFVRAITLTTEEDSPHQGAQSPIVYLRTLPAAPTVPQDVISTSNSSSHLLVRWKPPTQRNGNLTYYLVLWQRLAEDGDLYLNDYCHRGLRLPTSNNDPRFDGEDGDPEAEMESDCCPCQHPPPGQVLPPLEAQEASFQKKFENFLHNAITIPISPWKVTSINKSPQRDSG
Insulin receptor-related protein (Homo sapiens), sequence (P14616 747-1297 limits assumed): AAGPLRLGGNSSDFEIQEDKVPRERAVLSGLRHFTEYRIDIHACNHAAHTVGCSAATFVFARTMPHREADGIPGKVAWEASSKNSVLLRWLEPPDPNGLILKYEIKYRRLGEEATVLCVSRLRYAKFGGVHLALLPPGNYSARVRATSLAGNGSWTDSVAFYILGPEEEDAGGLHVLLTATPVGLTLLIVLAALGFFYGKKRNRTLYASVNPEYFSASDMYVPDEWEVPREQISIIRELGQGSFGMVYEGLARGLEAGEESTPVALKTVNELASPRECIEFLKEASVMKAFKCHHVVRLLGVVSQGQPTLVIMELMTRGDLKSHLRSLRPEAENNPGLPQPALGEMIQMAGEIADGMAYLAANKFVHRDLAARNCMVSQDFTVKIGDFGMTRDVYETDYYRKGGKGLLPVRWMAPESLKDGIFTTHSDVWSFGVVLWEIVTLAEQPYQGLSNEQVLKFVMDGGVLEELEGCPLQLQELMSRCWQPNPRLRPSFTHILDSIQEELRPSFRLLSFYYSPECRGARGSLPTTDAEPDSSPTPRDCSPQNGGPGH
Myosin light chain kinase, smooth muscle (Homo sapiens), sequence (Q15746 whole entry): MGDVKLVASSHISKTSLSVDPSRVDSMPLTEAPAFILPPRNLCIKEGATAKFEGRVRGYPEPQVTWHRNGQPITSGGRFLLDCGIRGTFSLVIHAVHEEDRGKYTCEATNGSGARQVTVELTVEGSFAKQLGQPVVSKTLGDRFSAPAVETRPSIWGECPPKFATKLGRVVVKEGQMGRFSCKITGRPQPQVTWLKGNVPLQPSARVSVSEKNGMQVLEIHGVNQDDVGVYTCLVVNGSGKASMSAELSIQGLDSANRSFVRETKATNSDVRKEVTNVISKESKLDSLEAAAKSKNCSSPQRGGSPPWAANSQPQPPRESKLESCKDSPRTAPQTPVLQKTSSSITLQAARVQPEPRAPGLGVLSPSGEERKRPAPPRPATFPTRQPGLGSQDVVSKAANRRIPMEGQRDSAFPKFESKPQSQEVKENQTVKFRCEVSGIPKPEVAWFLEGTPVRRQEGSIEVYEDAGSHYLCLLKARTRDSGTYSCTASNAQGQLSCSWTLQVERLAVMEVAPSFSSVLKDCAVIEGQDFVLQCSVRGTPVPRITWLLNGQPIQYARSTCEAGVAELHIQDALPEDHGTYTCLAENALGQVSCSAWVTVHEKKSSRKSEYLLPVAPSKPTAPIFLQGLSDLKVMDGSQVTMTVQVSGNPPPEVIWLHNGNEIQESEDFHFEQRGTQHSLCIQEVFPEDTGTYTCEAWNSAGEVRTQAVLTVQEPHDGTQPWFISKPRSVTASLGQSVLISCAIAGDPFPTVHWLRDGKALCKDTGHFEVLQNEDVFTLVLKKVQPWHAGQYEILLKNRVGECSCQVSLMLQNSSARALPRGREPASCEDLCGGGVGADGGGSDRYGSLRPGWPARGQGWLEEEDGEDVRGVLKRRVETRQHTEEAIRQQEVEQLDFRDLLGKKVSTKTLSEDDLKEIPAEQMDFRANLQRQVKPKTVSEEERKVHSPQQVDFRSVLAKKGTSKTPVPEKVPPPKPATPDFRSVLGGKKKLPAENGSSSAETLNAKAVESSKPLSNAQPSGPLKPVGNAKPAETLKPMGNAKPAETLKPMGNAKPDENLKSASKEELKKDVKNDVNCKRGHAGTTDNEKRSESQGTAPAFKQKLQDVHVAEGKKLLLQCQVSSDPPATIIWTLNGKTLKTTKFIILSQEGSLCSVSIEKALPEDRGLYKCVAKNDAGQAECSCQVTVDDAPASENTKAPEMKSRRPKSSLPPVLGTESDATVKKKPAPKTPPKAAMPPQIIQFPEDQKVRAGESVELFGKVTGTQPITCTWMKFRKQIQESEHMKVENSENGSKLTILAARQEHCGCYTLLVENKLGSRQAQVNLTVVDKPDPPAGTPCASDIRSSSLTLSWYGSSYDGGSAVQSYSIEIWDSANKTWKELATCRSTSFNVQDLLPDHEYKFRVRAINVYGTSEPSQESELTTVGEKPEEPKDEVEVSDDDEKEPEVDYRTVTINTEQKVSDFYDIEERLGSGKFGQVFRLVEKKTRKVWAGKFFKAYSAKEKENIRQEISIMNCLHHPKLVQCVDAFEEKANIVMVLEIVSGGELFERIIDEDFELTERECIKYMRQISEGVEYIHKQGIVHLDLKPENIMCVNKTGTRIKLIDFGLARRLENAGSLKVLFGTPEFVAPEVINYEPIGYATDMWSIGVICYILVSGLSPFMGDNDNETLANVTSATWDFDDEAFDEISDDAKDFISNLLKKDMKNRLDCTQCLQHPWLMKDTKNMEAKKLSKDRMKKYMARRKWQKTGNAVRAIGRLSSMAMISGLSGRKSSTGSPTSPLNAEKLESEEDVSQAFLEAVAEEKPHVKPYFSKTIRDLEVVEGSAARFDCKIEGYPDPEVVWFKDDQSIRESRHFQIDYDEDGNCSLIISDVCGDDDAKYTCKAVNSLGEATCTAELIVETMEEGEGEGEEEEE
Aurora kinase B (Homo sapiens), sequence (Q96GD4 whole entry): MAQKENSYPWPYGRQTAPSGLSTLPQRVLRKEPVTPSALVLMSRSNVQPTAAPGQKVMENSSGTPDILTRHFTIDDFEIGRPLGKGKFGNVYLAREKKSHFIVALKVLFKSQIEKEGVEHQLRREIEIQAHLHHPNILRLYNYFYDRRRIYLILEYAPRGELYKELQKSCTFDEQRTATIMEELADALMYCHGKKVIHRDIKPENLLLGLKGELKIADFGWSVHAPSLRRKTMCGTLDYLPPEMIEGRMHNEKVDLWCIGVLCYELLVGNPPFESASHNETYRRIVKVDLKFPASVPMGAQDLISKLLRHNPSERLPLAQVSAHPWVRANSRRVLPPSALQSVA
RAC-beta serine/threonine-protein kinase (Homo sapiens), sequence (P31751 whole entry): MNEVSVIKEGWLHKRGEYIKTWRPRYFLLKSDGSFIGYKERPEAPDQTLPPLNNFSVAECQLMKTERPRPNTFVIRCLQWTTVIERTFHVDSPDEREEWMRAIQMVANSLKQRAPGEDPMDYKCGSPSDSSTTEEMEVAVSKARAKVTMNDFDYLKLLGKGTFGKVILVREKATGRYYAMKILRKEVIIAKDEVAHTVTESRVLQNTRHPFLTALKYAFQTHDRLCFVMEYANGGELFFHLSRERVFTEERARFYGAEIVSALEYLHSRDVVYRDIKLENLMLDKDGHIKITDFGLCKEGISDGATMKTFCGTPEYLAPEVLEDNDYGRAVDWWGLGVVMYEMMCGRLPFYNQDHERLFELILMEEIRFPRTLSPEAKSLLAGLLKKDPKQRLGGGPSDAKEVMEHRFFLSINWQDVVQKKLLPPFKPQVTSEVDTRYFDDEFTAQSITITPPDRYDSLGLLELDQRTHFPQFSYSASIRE
Serine/threonine-protein kinase Chk2 (Homo sapiens), sequence (O96017 whole entry): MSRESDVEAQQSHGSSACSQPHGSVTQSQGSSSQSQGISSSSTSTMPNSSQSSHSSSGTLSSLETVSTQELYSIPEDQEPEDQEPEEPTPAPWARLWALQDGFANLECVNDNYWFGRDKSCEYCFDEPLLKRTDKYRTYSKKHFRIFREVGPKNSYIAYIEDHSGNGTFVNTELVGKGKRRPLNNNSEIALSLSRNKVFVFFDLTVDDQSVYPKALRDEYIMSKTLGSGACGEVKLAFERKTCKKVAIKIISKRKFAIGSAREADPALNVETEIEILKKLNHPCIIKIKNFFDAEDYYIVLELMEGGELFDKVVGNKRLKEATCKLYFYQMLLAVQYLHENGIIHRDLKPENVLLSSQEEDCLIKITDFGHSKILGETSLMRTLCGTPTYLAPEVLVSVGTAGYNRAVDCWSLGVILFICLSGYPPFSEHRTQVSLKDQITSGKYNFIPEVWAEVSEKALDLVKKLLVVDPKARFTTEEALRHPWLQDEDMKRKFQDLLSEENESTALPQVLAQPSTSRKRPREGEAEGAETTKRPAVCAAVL

On to `CC(=O)Nc1nccc(-c2c(-c3ccccc3)noc2C)n1`, for which the Activity in test [1] was 102%; in test [2], 89.7%; in [3], 95%; in test [4], 106%; in test [5] it was 85.1%; in test [6] it was 93%. Also, the Activity in [7] was determined as 98.7%; in test [8], 83.2%; in test [9], 85.8%; in [10], 78.8%; in the test listed under Oryctolagus cuniculus, 66.8%; in [11], 84%. Besides, the Activity in [12] turned out to be 119%; in test [13] it was 80.4%; in [14] it was 93.5%; in the test filed under Bos taurus, 81.7%; in [15], 101%.

As to `CCCC(=O)Nc1n[nH]c2ncc(-c3cccnc3)cc12`, the Activity in test [1] was 91%; in test [2], 94%; in test [3], 121%; in test [4] it was 91%; in test [5], 113%; in test [6], 71%. In addition, the Activity in test [7] was 104%; in test [8], 61%; in test [9], 97%; in [10], 96%; in the test filed under Oryctolagus cuniculus, 103%; in test [11], 91%. For the same compound, the Activity was found to be 83% in test [12]; 87% in test [13]; 102% in test [14]; 101% in the test filed under Bos taurus; 79% in test [15].

Consider `CC(=O)Nc1cccc(-c2cnc3[nH]nc(C)c3c2)c1`, for which the Activity in test [1] amounted to 19.3%; in [2], 94.6%; in [3] it was 93.9%; in test [4], 88.9%; in test [5], 93.8%; in test [6], 85.1%. The Activity in [7] stood at 55.9%; in test [8], 73.9%; in [9], 53.5%; in test [10] it was 28.9%; in the test filed under Oryctolagus cuniculus, 45.9%; in test [11], 94%. Besides, the Activity in test [12] worked out at 100%; in test [13], 72.9%; in test [14], 77.2%; in the test filed under Bos taurus it was 95%; in [15], 70%.
